Measurements: US20210310069A1, “METHODS FOR DETERMINING GENE-ALPHA TOCOPHEROL INTERACTIONS” (BodySync. Inc., priority 2009, published 2021)
Blank lines part the entries; values can stand above or below the compound they belong to.

Legend:
[1] = tested on: TNFα; assay: TNFα level of LPS-cultured PBMCs (BD CBA Human Inflammation Kit) from healthy men after 6 weeks of αT supplementation; type: in vivo; conditions: for PMBC cytokine levels TNFα mean: 6-weeks
Text: (§1) Healthy middle-aged male volunteers (mean age 52.7±10 years; median years) were given dietary supplements of either […] (moderate dose), or […] (high dose) RRR-α tocopherol per day for six weeks. Subject numbers in each group were 57 and 102 respectively. All research participants gave written informed consent to take part. The study protocol was approved by the Southampton University Hospitals Trust Clinical Ethics Committee authorized the research protocol. Study participants continued with their normal diets while receiving the supplements. Subjects continued with their normal daily activities while on the study but visited the Wellcome Trust Clinical Research Facility at Southampton University Hospital Trust, after an overnight fast, at the beginning and end of the supplementation period. At the visit weight, height, and waist and hip circumference were measured, and blood samples taken for the measurement of cytokines.
(§2) Alpha-tocopherol in plasma was determined using fluorimetry according to methods described elsewhere (11). The limit of detection for αT was 7.2 pmol/L. Peripheral blood mononuclear cells (PBMCs) were prepared from heparinized whole blood samples using Leucosep sterile centrifuge tubes (Greiner Bio-one, Germany) and Histopaque gradient solution (Sigma-Aldrich Inc, MO, USA) and cultured in the presence of Lipopolysaccharide (LPS) (Sigma-Aldrich Inc, MO, USA) for 24h after which time the supernatants were removed and stored. Interleukin-6 (IL-6), tumor necrosis factor (TNF) and interleukin-1β (IL-1β) protein levels were quantitatively measured by the BD CBA Human Inflammation Kit (BD Bioscience, San Jose, Calif., USA). The operations were performed according to the manufacturer's instructions. The intensity of the fluorescence signal was acquired on a fluorescence activated cell sorter (FACS) flow cytometer (BD Becton-Dickinson), and analyzed using CBA software. The concentration range for detection using this assay is 20-5000 pg/ml for each of the proteins.
(§3) A linear regression was carried out where the outcome variable was Log(DeltaCk+minDeltaCk) Where Ck stands for IL-1, IL-6 or TNF-alpha. And DeltaCk=Followup-Baseline serum cytokine levels, and minDelta the most negative DeltaCk (<0) observed in the population baseline value, alpha tocopherol dose group, smoking status (age+BMI) were included as covariates.

[2] = Fasting plasma alpha-tocopherol by fluorimetry in healthy men supplemented with αT for six weeks; type: in vivo, human; conditions: for fasting plasma αT mean: 6-weeks
Text: as §1, §2

[3] = tested on: IL-6; assay: IL-6 level of LPS-cultured PBMCs (BD CBA Human Inflammation Kit) from healthy men after 6 weeks of αT supplementation; type: in vivo; conditions: for PMBC cytokine levels IL-6 mean: 6-weeks
Text: as §1, §2, §3

[4] = tested on: IL-1; assay: IL-1 (IL-1β) level of LPS-cultured PBMCs (BD CBA Human Inflammation Kit) from healthy men after 6 weeks of αT supplementation; type: in vivo; conditions: for PMBC cytokine levels IL-1 mean: 6-weeks
Text: as §1, §2, §3

[5] = subjects who took vitamin E supplements; adjusted for age, smoking status, intake of carotene and vitamin C; cited from earlier work

fasting plasma αT mean ([2]; 75 IU/d, n = 57 healthy males): 22.6 µmol/L
fasting plasma αT mean ([2]; 600 IU/d, n = 102 healthy males): 31.3 µmol/L
change in plasma fasting levels of alpha-tocopherol ([2]; both dose groups (75 and 600 IU/d), 6 weeks): increase
Compound: Cc1c(C)c2c(c(C)c1O)CC[C@@](C)(CCC[C@H](C)CCC[C@H](C)CCCC(C)C)O2 [αT, RRR-α tocopherol]
PMBC cytokine levels TNFα mean ([1]; 75 IU/d): 1.48 ng/L
PMBC cytokine levels TNFα mean ([1]; 600 IU/d): 1.31 ng/L
change in TNFα by genotype ([1]; GA genotype at TNF-238, 6 weeks, p<0.016 after correcting for multiple tests): decrease
change in serum levels of TNFα ([1]; both treatment groups, 6 weeks): increase
change in serum levels of TNFα by genotype ([1]; genotypes AG and AA for IL10-1082 SNP and GG for TNF-238 SNP, 6 weeks): increase
increase in TNFα after supplementation ([1]; low-dose group (75 IU/d), 6 weeks, p<0.011 after adjusting for age, baseline levels, smoking status and BMI): 40.5%
PMBC cytokine levels IL-6 mean ([3]; 75 IU/d): 18.71 ng/L
PMBC cytokine levels IL-6 mean ([3]; 600 IU/d): 16.73 ng/L
change in IL-6 serum levels by genotype ([3]; GSTP1 313 AG and GG carriers (so in the source), 6 weeks): increase
change in IL-6 levels by genotype ([3]; SOD-28 TT versus CT and CC variants, 6 weeks, not significant after adjusting for multiple tests): lower increase
change in serum levels of IL-6 ([3]; both treatment groups, 6 weeks): increase
change in IL-6 levels by genotype ([3]; variant homozygotes GSTP1 313 (GG), 6 weeks, p<0.019): decreased levels
PMBC cytokine levels IL-1 mean ([4]; 75 IU/d): 7.38 ng/L
PMBC cytokine levels IL-1 mean ([4]; 600 IU/d): 6.93 ng/L
change in IL1 levels by genotype ([4]; GG carriers at IL10-1082, 6 weeks): lower increase
change in IL-1 levels by genotype ([4]; GG genotype at GSTP1 313, 6 weeks, not significant after FDR correction): decrease
change in serum levels of IL-1 ([4]; both treatment groups, 6 weeks): increase
change in IL1 levels by genotype ([4]; common genotypes at IL10-592 (CC) and IL10-819, 6 weeks): lower increase

Compound: vitamin E
reduction of major coronary heart disease [5]: 30%
